In article PMC10141580, “Cyclic Dichalcogenides Extend the Reach of Bioreductive Prodrugs to Harness Thiol/Disulfide Oxidoreductases: Applications to seco-Duocarmycins Targeting the Thioredoxin System” (ACS Central Science, 2023):
Where two headings read alike, the source gives them in different places.

System: NCI-60 standardized human tumor cell line panel
Assay: cells
Format: cell-based
Details: for NCI-60 screening: Log(GI50): log10 of GI50 in M; for NCI-60 screening: Log(RedIndex): log10 reductive index vs P-CC60

COc1cc2cc(C(=O)N3CC(CCl)c4c3cc(OC(=O)N3CCN(C)C5CSSCC53)c3ccccc43)[nH]c2c(OC)c1OC (mixture of isomers) [Me-SS66C-CBI-TMI]
NCI-60 screening: Log(GI50) (786-0 (RE) cell line): -6.71
NCI-60 screening: Log(RedIndex) (786-0 (RE) cell line): 0.94
GI50 (786-0 (RE) cell line, read-out: NCI-60 screening: Raw GI50): 200 nM
GI50 (786-0, read-out: GI50): 200 nM
NCI-60 screening: Log(GI50) (A498 (RE) cell line): -5.91
NCI-60 screening: Log(RedIndex) (A498 (RE) cell line): 0.35
GI50 (A498, read-out: GI50): 1200 nM
GI50 (A549/ATCC, read-out: GI50): 180 nM
NCI-60 screening: Log(GI50) (ACHN (RE) cell line): -7.55
NCI-60 screening: Log(RedIndex) (ACHN (RE) cell line): 1.24
GI50 (ACHN (RE) cell line, read-out: NCI-60 screening: Raw GI50): 28 nM
GI50 (ACHN, read-out: GI50): 28 nM
GI50 (BT-549, read-out: GI50): 170 nM
NCI-60 screening: Log(GI50) (CAKI-1 (RE) cell line): -6.61
NCI-60 screening: Log(RedIndex) (CAKI-1 (RE) cell line): 0.78
GI50 (CAKI-1 (RE) cell line, read-out: NCI-60 screening: Raw GI50): 250 nM
GI50 (CAKI-1, read-out: GI50): 250 nM
GI50 (CCRF-CEM, read-out: GI50): 110 nM
GI50 (COLO 205, read-out: GI50): 330 nM
NCI-60 screening: Log(GI50) (DU-145 (PR) cell line): -7.2
NCI-60 screening: Log(RedIndex) (DU-145 (PR) cell line): 0.86
GI50 (DU-145, read-out: GI50): 63 nM
GI50 (EKVX, read-out: GI50): 230 nM
GI50 (HCC-2998, read-out: GI50): 140 nM
GI50 (HCT-15, read-out: GI50): 250 nM
GI50 (HCT-116, read-out: GI50): 190 nM
GI50 (HL-60(TB), read-out: GI50): 52 nM
GI50 (HOP-62, read-out: GI50): 200 nM
GI50 (HOP-92, read-out: GI50): 240 nM
GI50 (HT29, read-out: GI50): 230 nM
NCI-60 screening: Log(GI50) (IGROV1 (OV) cell line): -5.82
NCI-60 screening: Log(RedIndex) (IGROV1 (OV) cell line): 0.18
GI50 (IGROV1, read-out: GI50): 1500 nM
GI50 (K-562, read-out: GI50): 400 nM
GI50 (KM12, read-out: GI50): 1100 nM
GI50 (LOX IMVI, read-out: GI50): 170 nM
GI50 (M14, read-out: GI50): 250 nM
GI50 (MALME-3M, read-out: GI50): 210 nM
GI50 (MCF7, read-out: GI50): 28 nM
GI50 (MDA-MB-435, read-out: GI50): 840 nM
GI50 (MDA-MB-468, read-out: GI50): 160 nM
GI50 (MOLT-4, read-out: GI50): 70 nM
GI50 (NCI-H23, read-out: GI50): 45 nM
GI50 (NCI-H226, read-out: GI50): 1000 nM
NCI-60 screening: Log(GI50) (NCI-H460 (LC) cell line): -7.39
NCI-60 screening: Log(RedIndex) (NCI-H460 (LC) cell line): 1.1
GI50 (NCI-H460, read-out: GI50): 41 nM
NCI-60 screening: Log(GI50) (NCI-H522 (LC) cell line): -6.84
NCI-60 screening: Log(RedIndex) (NCI-H522 (LC) cell line): 1.07
GI50 (NCI-H522 (LC) cell line, read-out: NCI-60 screening: Raw GI50): 150 nM
GI50 (NCI-H522, read-out: GI50): 150 nM
NCI-60 screening: Log(GI50) (OVCAR-3 (OV) cell line): -6.31
NCI-60 screening: Log(RedIndex) (OVCAR-3 (OV) cell line): 0.63
GI50 (OVCAR-3, read-out: GI50): 490 nM
NCI-60 screening: Log(GI50) (OVCAR-4 (OV) cell line): -5.79
NCI-60 screening: Log(RedIndex) (OVCAR-4 (OV) cell line): 0.16
GI50 (OVCAR-4, read-out: GI50): 1600 nM
NCI-60 screening: Log(GI50) (OVCAR-5 (OV) cell line): -6.55
NCI-60 screening: Log(RedIndex) (OVCAR-5 (OV) cell line): 1.26
GI50 (OVCAR-5, read-out: GI50): 280 nM
NCI-60 screening: Log(GI50) (OVCAR-8 (OV) cell line): -6.82
NCI-60 screening: Log(RedIndex) (OVCAR-8 (OV) cell line): 1.04
GI50 (OVCAR-8 (OV) cell line, read-out: NCI-60 screening: Raw GI50): 150 nM
GI50 (OVCAR-8, read-out: GI50): 150 nM
NCI-60 screening: Log(GI50) (PC-3 (PR) cell line): -6.45
NCI-60 screening: Log(RedIndex) (PC-3 (PR) cell line): 0.94
GI50 (PC-3, read-out: GI50): 360 nM
GI50 (RPMI-8226, read-out: GI50): 160 nM
NCI-60 screening: Log(GI50) (RXF 393 (RE) cell line): -6.88
NCI-60 screening: Log(RedIndex) (RXF 393 (RE) cell line): 0.9
GI50 (RXF 393 (RE) cell line, read-out: NCI-60 screening: Raw GI50): 130 nM
GI50 (RXF 393, read-out: GI50): 130 nM
GI50 (SF-268, read-out: GI50): 170 nM
GI50 (SF-295, read-out: GI50): 130 nM
GI50 (SF-539, read-out: GI50): 170 nM
GI50 (SK-MEL-5, read-out: GI50): 170 nM
GI50 (SK-MEL-28, read-out: GI50): 260 nM
NCI-60 screening: Log(GI50) (SK-OV-3 (OV) cell line): -7.47
NCI-60 screening: Log(RedIndex) (SK-OV-3 (OV) cell line): 1.8
GI50 (SK-OV-3, read-out: GI50): 34 nM
NCI-60 screening: Log(GI50) (SN12C (RE) cell line): -6.69
NCI-60 screening: Log(RedIndex) (SN12C (RE) cell line): 0.77
GI50 (SN12C (RE) cell line, read-out: NCI-60 screening: Raw GI50): 200 nM
GI50 (SN12C, read-out: GI50): 200 nM
GI50 (SNB-19, read-out: GI50): 220 nM
GI50 (SR, read-out: GI50): 37 nM
GI50 (SW-620, read-out: GI50): 260 nM
GI50 (T-47D, read-out: GI50): 290 nM
NCI-60 screening: Log(GI50) (TK-10 (RE) cell line): -5.89
NCI-60 screening: Log(RedIndex) (TK-10 (RE) cell line): 0.34
GI50 (TK-10, read-out: GI50): 1300 nM
